Results published in EPA's ToxRefDB 2.

Legend:
[1] = tested on: dog; settings: Chronic toxicity, beagle, Oral, Capsule, dose end: 52 week
[2] = tested on: rat; settings: Multigenerational reproductive toxicity study, sprague dawley, Oral, Feed, dose end: 2 generation
[3] = tested on: mouse; settings: Carcinogenicity, cd1, Oral, Feed, dose end: 2 year, group: systemic
[4] = tested on: rat; settings: Combined chronic toxicity/carcinogenicity, sprague dawley, Oral, Feed, dose end: 24 month
[5] = tested on: rat; settings: Subchronic oral toxicity in rodents, fischer, Feed, dose end: 13 week, group: systemic
[6] = tested on: dog; settings: Subchronic oral toxicity in nonrodent, beagle, Feed, dose end: 13 week, group: systemic
[7] = tested on: mouse; settings: Subchronic oral toxicity in rodents, cd1, Feed, dose end: 13 week, group: systemic, systemic / clinical chemistry / alkaline phosphatase (alp/alk) / alkaline phosphatase (alp/alk) + systemic / organ weight / liver / nos + …
[8] = tested on: dog; settings: Chronic toxicity, beagle, Oral, Feed, dose end: 52 week, group: systemic
[9] = tested on: rat; settings: Combined chronic toxicity/carcinogenicity, fischer, Oral, Feed, dose end: 2 year, group: systemic
[10] = tested on: rat; settings: Multigenerational reproductive toxicity study, other, Oral, Feed, dose end: 2 generation
[11] = group: cholinesterase, cholinesterase / cholinesterase / cholinesterase / brain cholinesterase (che) + cholinesterase / cholinesterase / cholinesterase / plasma …
[12] = group: systemic, systemic / in life observation / body weight / body weight gain + systemic / in life observation / food consumption / food efficiency + …
[13] = group: offspring, developmental / offspring survival late / lactation index / lactation index
[14] = group: offspring, systemic / in life observation / body weight / offspring (pup) weight
[15] = group: parental, systemic / in life observation / body weight / body weight
[16] = group: reproductive, reproductive / offspring survival early / litter size / litter size
[17] = group: reproductive, reproductive / offspring survival early / litter size / litter size + reproductive / offspring survival early / litter viability other / …
[18] = systemic / in life observation / mortality / mortality + systemic / hematology / lymphocyte / lymphocyte + systemic / in life observation / …
[19] = group: cholinesterase, cholinesterase / cholinesterase / cholinesterase / brain cholinesterase (che) + cholinesterase / cholinesterase / cholinesterase / …
[20] = group: systemic, systemic / in life observation / mortality / mortality
[21] = group: systemic, systemic / in life observation / mortality / mortality + systemic / clinical chemistry / alanine aminotransferase (alt/sgpt) / alanine …
[22] = systemic / clinical chemistry / albumin / albumin + systemic / clinical chemistry / cholesterol / cholesterol + systemic / clinical …
[23] = systemic / pathology microscopic / kidney / crystals + systemic / pathology microscopic / kidney / hyperplasia + systemic / organ weight / …
[24] = systemic / pathology microscopic / kidney / hyperplasia + systemic / in life observation / body weight / body weight gain + systemic / in …
[25] = systemic / in life observation / body weight / body weight + systemic / in life observation / body weight / body weight gain + systemic / …
[26] = group: offspring, systemic / in life observation / body weight / offspring (pup) weight gain
[27] = group: parental, systemic / organ weight / liver / relative to body weight
[28] = group: parental, systemic / pathology microscopic / kidney / crystals + systemic / pathology microscopic / kidney / degeneration + systemic / pathology …

**Q.** Which results are given for COP(=O)(OC)O/C(C)=C/C(=O)N(C)C [Dicrotophos]?
**A.** LEL [1, 11]: 0.1 mg/kg/day; LOAEL [1, 11]: 0.1 mg/kg/day; NEL [1, 11]: 0.025 mg/kg/day; NOAEL [1, 11]: 0.025 mg/kg/day; LOAEL ([1]; group: systemic, systemic / in life observation / body weight / body weight gain + systemic / in life observation / food consumption / food efficiency): 0.1 mg/kg/day; LEL [1, 12]: 0.1 mg/kg/day; NEL [1, 12]: 0.025 mg/kg/day; NOAEL [1, 12]: 0.025 mg/kg/day; LOAEL [2, 13]: > 2.53 mg/kg/day; NOAEL [2, 13]: ≥ 2.53 mg/kg/day; LEL [2, 14]: 0.05 mg/kg/day; NEL [2, 14]: < 0.05 mg/kg/day; LEL [2, 15]: 0.06 mg/kg/day; NEL [2, 15]: < 0.06 mg/kg/day; LOAEL ([2]; group: parental, systemic / in life observation / body weight / body weight + systemic / in life observation / food consumption / food efficiency): 0.49 mg/kg/day; NOAEL ([2]; group: parental, systemic / in life observation / body weight / body weight + systemic / in life observation / food consumption / food efficiency + systemic…): 0.05 mg/kg/day; LEL [2, 16]: 0.56 mg/kg/day; LOAEL [2, 16]: 0.56 mg/kg/day; NEL [2, 17]: 0.05 mg/kg/day; NOAEL [2, 17]: 0.05 mg/kg/day; LOAEL ([3]; systemic / in life observation / mortality / mortality): 1.58 mg/kg/day; NEL [3, 18]: 0.31 mg/kg/day; NOAEL [3, 18]: 0.31 mg/kg/day; LEL ([3]; systemic / in life observation / mortality / mortality + systemic / pathology gross / eye / discolored): 1.58 mg/kg/day; LEL [4, 19]: 0.02 mg/kg/day; LOAEL [4, 19]: 0.02 mg/kg/day; NEL [4, 19]: < 0.02 mg/kg/day; NOAEL [4, 19]: < 0.02 mg/kg/day; LEL [4, 20]: 0.25 mg/kg/day; LOAEL [4, 20]: 0.25 mg/kg/day; NEL [4, 21]: 0.02 mg/kg/day; NOAEL [4, 21]: 0.02 mg/kg/day

**Q.** Which results are given for COc1cnc(OC)n2nc(NS(=O)(=O)c3c(OCC(F)F)cccc3C(F)(F)F)nc12 [Penoxsulam]?
**A.** LOAEL [5, 22]: 263 mg/kg/day; NOAEL [5, 22]: 53.3 mg/kg/day; LEL ([5]; systemic / in life observation / clinical signs / perineal soiling): 52.3 mg/kg/day; NEL ([5]; systemic / in life observation / clinical signs / perineal soiling + systemic / hematology / blood clotting / blood clotting - prothrombin …): 5.2 mg/kg/day; LOAEL ([6]; systemic / pathology microscopic / kidney / crystals + systemic / pathology microscopic / kidney / hyperplasia): 49.4 mg/kg/day; LEL [6, 23]: 49.4 mg/kg/day; NEL [6, 23]: 17.8 mg/kg/day; NOAEL [6, 23]: 17.8 mg/kg/day; LEL [7]: 511 mg/kg/day; LOAEL [7]: > 1030 mg/kg/day; NEL [7]: 102 mg/kg/day; NOAEL [7]: ≥ 1030 mg/kg/day; LOAEL ([8]; systemic / pathology microscopic / kidney / hyperplasia): 46.2 mg/kg/day; LEL [8, 24]: 46.2 mg/kg/day; NEL [8, 24]: 14.7 mg/kg/day; NOAEL [8, 24]: 14.7 mg/kg/day; LOAEL [9, 25]: 254 mg/kg/day; NEL [9, 25]: 5.1 mg/kg/day; NOAEL [9, 25]: 50.9 mg/kg/day; LEL ([9]; systemic / pathology microscopic / kidney / hyperplasia + systemic / in life observation / clinical signs / perineal soiling): 50.9 mg/kg/day; LEL ([10]; group: offspring, developmental / developmental landmark / preputial separation / preputial separation): 100 mg/kg/day; LOAEL [10, 26]: 300 mg/kg/day; NOAEL [10, 26]: 100 mg/kg/day; NEL ([10]; group: offspring, systemic / in life observation / body weight / offspring (pup) weight gain + developmental / developmental landmark / preputial separation…): 30 mg/kg/day; LEL [10, 27]: 30 mg/kg/day; NEL [10, 27]: < 30 mg/kg/day; LOAEL [10, 28]: 100 mg/kg/day; NOAEL [10, 28]: 30 mg/kg/day
